Reference: ChEMBL document CHEMBL4145517, “Advances on photodynamic therapy of melanoma through novel ring-fused 5,15-diphenylchlorins” (Eur J Med Chem, 2018)
Calls of active or inactive are those of the source. The rule behind the calls is not given here.

System: A-375
Experiment: Increase in expression of reduced glutathione in human A375 cells up to 500 nM preincubated for 24 hrs followed by exposure to light with fluence rate of 7.5 mW/cm2 at 10 J and measured after 24 hrs by mercury orange staining-based fluorescence analysis
Type: functional, cell-based
Details: not given

**Q.** Which Activity does the source give for `OCc1nn2c(c1CO)CC1c3nc(cc4ccc([nH]4)c(-c4ccccc4)c4nc(cc5ccc([nH]5)c3-c3ccccc3)C=C4)C1C2` (stereo not given) here?
**A.** inactive

**Q.** For `COC(=O)c1nn2c(c1C(=O)OC)CC1c3nc(cc4ccc([nH]4)c(-c4ccccc4)c4nc(cc5ccc([nH]5)c3-c3ccccc3)C=C4)C1C2` (stereo not given), which Activity is on record?
**A.** inactive

System: A-375
Experiment: Disruption of mitochondrial membrane potential in human A375 cells at 50 nM preincubated for 24 hrs followed by exposure to light with fluence rate of 7.5 mW/cm2 at 10 J and measured after 24 hrs by JC-1 staining-based assay
Type: functional, cell-based
Details: not given

**Q.** Which Activity does the source give for `OCc1nn2c(c1CO)CC1c3nc(cc4ccc([nH]4)c(-c4ccccc4)c4nc(cc5ccc([nH]5)c3-c3ccccc3)C=C4)C1C2` (stereo not given) here?
**A.** Active

**Q.** For `COC(=O)c1nn2c(c1C(=O)OC)CC1c3nc(cc4ccc([nH]4)c(-c4ccccc4)c4nc(cc5ccc([nH]5)c3-c3ccccc3)C=C4)C1C2` (stereo not given), which Activity is on record?
**A.** Active

System: A-375
Experiment: Disruption of mitochondrial membrane potential in human A375 cells at 500 nM preincubated for 24 hrs followed by exposure to light with fluence rate of 7.5 mW/cm2 at 10 J and measured after 24 hrs by JC-1 staining-based assay
Type: functional, cell-based
Details: not given

**Q.** Which Activity does the source give for `COC(=O)c1nn2c(c1C(=O)OC)CC1c3nc(cc4ccc([nH]4)c(-c4ccccc4)c4nc(cc5ccc([nH]5)c3-c3ccccc3)C=C4)C1C2` (stereo not given) here?
**A.** Active

System: A-375
Experiment: Phototoxicity against human A375 cells assessed as reduction in cell viability up to 500 nM preincubated for 24 hrs followed by exposure to light with fluence rate of 7.5 mW/cm2 at 10 J and measured after 24 hrs in presence of hydroxyl radical scavenger D-mannitol by MTT assay
Type: functional, cell-based
Details: not given

**Q.** Which Activity does the source give for `OCc1nn2c(c1CO)CC1c3nc(cc4ccc([nH]4)c(-c4ccccc4)c4nc(cc5ccc([nH]5)c3-c3ccccc3)C=C4)C1C2` (stereo not given) here?
**A.** Active

**Q.** For `COC(=O)c1nn2c(c1C(=O)OC)CC1c3nc(cc4ccc([nH]4)c(-c4ccccc4)c4nc(cc5ccc([nH]5)c3-c3ccccc3)C=C4)C1C2` (stereo not given), which Activity is on record?
**A.** Active

System: A-375
Experiment: Cell cycle arrest in human A375 cells assessed as accumulation at pre-G0 phase up to 500 nM preincubated for 24 hrs followed by exposure to light with fluence rate of 7.5 mW/cm2 at 10 J and measured after 24 hrs by propidium iodide/RNase-staining based flow cytometric analysis
Type: functional
Details: not given

**Q.** For `OCc1nn2c(c1CO)CC1c3nc(cc4ccc([nH]4)c(-c4ccccc4)c4nc(cc5ccc([nH]5)c3-c3ccccc3)C=C4)C1C2` (stereo not given), which Activity is on record?
**A.** Active

**Q.** Which Activity does the source give for `COC(=O)c1nn2c(c1C(=O)OC)CC1c3nc(cc4ccc([nH]4)c(-c4ccccc4)c4nc(cc5ccc([nH]5)c3-c3ccccc3)C=C4)C1C2` (stereo not given) here?
**A.** Active

System: not listed separately
Experiment: Drug uptake in human A375 cells preincubated for 24 hrs followed by exposure to light with fluence rate of 7.5 mW/cm2 at 10 J measured after 24 hrs by fluorescence spectroscopic analysis
Type: ADME, cell-based
Details: a-375, 24 h

**Q.** For `OCc1nn2c(c1CO)CC1c3nc(cc4ccc([nH]4)c(-c4ccccc4)c4nc(cc5ccc([nH]5)c3-c3ccccc3)C=C4)C1C2` (stereo not given), which Drug uptake is on record?
**A.** Dose-dependent effect

**Q.** With `COC(=O)c1nn2c(c1C(=O)OC)CC1c3nc(cc4ccc([nH]4)c(-c4ccccc4)c4nc(cc5ccc([nH]5)c3-c3ccccc3)C=C4)C1C2` (stereo not given) as the compound, how does the Drug uptake read?
**A.** Dose-dependent effect

System: A-375
Experiment: Decrease in intracellular peroxides generation in human A375 cells at 500 nM preincubated for 24 hrs followed by exposure to light with fluence rate of 7.5 mW/cm2 at 10 J and measured after 24 hrs by DCFH2-DA staining-based fluorescence analysis
Type: functional, cell-based
Details: not given

**Q.** Which Activity does the source give for `OCc1nn2c(c1CO)CC1c3nc(cc4ccc([nH]4)c(-c4ccccc4)c4nc(cc5ccc([nH]5)c3-c3ccccc3)C=C4)C1C2` (stereo not given) here?
**A.** Active

**Q.** With `COC(=O)c1nn2c(c1C(=O)OC)CC1c3nc(cc4ccc([nH]4)c(-c4ccccc4)c4nc(cc5ccc([nH]5)c3-c3ccccc3)C=C4)C1C2` (stereo not given) as the compound, how does the Activity read?
**A.** Active

System: not listed separately
Experiment: Dark toxicity against human HFF1 cells at 1 to 10 uM after 24 hrs by MTT assay
Type: cell-based
Details: hff-1, 24 h

**Q.** With `COC(=O)c1nn2c(c1C(=O)OC)CC1c3nc(cc4ccc([nH]4)c(-c4ccccc4)c4nc(cc5ccc([nH]5)c3-c3ccccc3)C=C4)C1C2` (stereo not given) as the compound, how does the Activity read?
**A.** Non-Toxic

System: not listed separately
Experiment: Dark toxicity against human HFF1 cells at 5 to 10 uM after 24 hrs by MTT assay
Type: cell-based
Details: hff-1, 24 h

**Q.** With `OCc1nn2c(c1CO)CC1c3nc(cc4ccc([nH]4)c(-c4ccccc4)c4nc(cc5ccc([nH]5)c3-c3ccccc3)C=C4)C1C2` (stereo not given) as the compound, how does the Activity read?
**A.** Toxic

System: A-375
Experiment: Photocytotoxicity against human A375 cells at 5 to 500 nM preincubated for 24 hrs followed by exposure to light with fluence rate of 7.5 mW/cm2 until 5 to 10 J and measured after 24 hrs by MTT assay
Type: functional, cell-based
Details: not given

**Q.** With `OCc1nn2c(c1CO)CC1c3nc(cc4ccc([nH]4)c(-c4ccccc4)c4nc(cc5ccc([nH]5)c3-c3ccccc3)C=C4)C1C2` (stereo not given) as the compound, how does the Activity read?
**A.** Active

**Q.** Which Activity does the source give for `COC(=O)c1nn2c(c1C(=O)OC)CC1c3nc(cc4ccc([nH]4)c(-c4ccccc4)c4nc(cc5ccc([nH]5)c3-c3ccccc3)C=C4)C1C2` (stereo not given) here?
**A.** Active

System: A-375
Experiment: Photocytotoxicity against human A375 cells at 5 to 50 nM preincubated for 24 hrs followed by exposure to light with fluence rate of 7.5 mW/cm2 until 20J and measured after 24 hrs by MTT assay
Type: functional, cell-based
Details: not given

**Q.** For `OCc1nn2c(c1CO)CC1c3nc(cc4ccc([nH]4)c(-c4ccccc4)c4nc(cc5ccc([nH]5)c3-c3ccccc3)C=C4)C1C2` (stereo not given), which Activity is on record?
**A.** Active

**Q.** With `COC(=O)c1nn2c(c1C(=O)OC)CC1c3nc(cc4ccc([nH]4)c(-c4ccccc4)c4nc(cc5ccc([nH]5)c3-c3ccccc3)C=C4)C1C2` (stereo not given) as the compound, how does the Activity read?
**A.** Active

System: A-375
Experiment: Induction of apoptosis in human A375 cells assessed as decrease in living cells at 500 nM preincubated for 24 hrs followed by exposure to light with fluence rate of 7.5 mW/cm2 at 10 J and measured after 24 hrs by Annexin-V/propidium iodide stainin-based FACS analysis
Type: functional
Details: not given

**Q.** With `OCc1nn2c(c1CO)CC1c3nc(cc4ccc([nH]4)c(-c4ccccc4)c4nc(cc5ccc([nH]5)c3-c3ccccc3)C=C4)C1C2` (stereo not given) as the compound, how does the Activity read?
**A.** inactive

**Q.** For `COC(=O)c1nn2c(c1C(=O)OC)CC1c3nc(cc4ccc([nH]4)c(-c4ccccc4)c4nc(cc5ccc([nH]5)c3-c3ccccc3)C=C4)C1C2` (stereo not given), which Activity is on record?
**A.** >50%

System: A-375
Experiment: Induction of apoptosis in human A375 cells assessed as increase in necrotic cells at 50 nM preincubated for 24 hrs followed by exposure to light with fluence rate of 7.5 mW/cm2 at 10 J and measured after 24 hrs by Annexin-V/propidium iodide stainin-based FACS analysis
Type: functional, cell-based
Details: not given

**Q.** For `COC(=O)c1nn2c(c1C(=O)OC)CC1c3nc(cc4ccc([nH]4)c(-c4ccccc4)c4nc(cc5ccc([nH]5)c3-c3ccccc3)C=C4)C1C2` (stereo not given), which Activity is on record?
**A.** Active

System: A-375
Experiment: Decrease in intracellular superoxide anion generation in human A375 cells at 500 nM preincubated for 24 hrs followed by exposure to light with fluence rate of 7.5 mW/cm2 at 10 J and measured after 24 hrs by dihydroethidium staining-based fluorescence analysis
Type: functional, cell-based
Details: not given

**Q.** With `OCc1nn2c(c1CO)CC1c3nc(cc4ccc([nH]4)c(-c4ccccc4)c4nc(cc5ccc([nH]5)c3-c3ccccc3)C=C4)C1C2` (stereo not given) as the compound, how does the Activity read?
**A.** Active

**Q.** For `COC(=O)c1nn2c(c1C(=O)OC)CC1c3nc(cc4ccc([nH]4)c(-c4ccccc4)c4nc(cc5ccc([nH]5)c3-c3ccccc3)C=C4)C1C2` (stereo not given), which Activity is on record?
**A.** Active

System: A-375
Experiment: Photocytotoxicity against human A375 cells preincubated for 24 hrs followed by exposure to light with fluence rate of 7.5 mW/cm2 until 10 J measured after 24 hrs by MTT assay
Type: functional, cell-based
Details: not given

**Q.** For `OCc1nn2c(c1CO)CC1c3nc(cc4ccc([nH]4)c(-c4ccccc4)c4nc(cc5ccc([nH]5)c3-c3ccccc3)C=C4)C1C2` (stereo not given), which IC50 is on record?
**A.** 2.9 nM

**Q.** Which IC50 does the source give for `COC(=O)c1nn2c(c1C(=O)OC)CC1c3nc(cc4ccc([nH]4)c(-c4ccccc4)c4nc(cc5ccc([nH]5)c3-c3ccccc3)C=C4)C1C2` (stereo not given) here?
**A.** 14.5 nM

System: A-375
Experiment: Photocytotoxicity against human A375 cells assessed as decrease in cell viability by measuring protein content at >= 50 nM preincubated for 24 hrs followed by exposure to light with fluence rate of 7.5 mW/cm2 at 10 J and measured after 24 hrs by sulforhodamine B assay
Type: functional, cell-based
Details: not given

**Q.** For `OCc1nn2c(c1CO)CC1c3nc(cc4ccc([nH]4)c(-c4ccccc4)c4nc(cc5ccc([nH]5)c3-c3ccccc3)C=C4)C1C2` (stereo not given), which Activity is on record?
**A.** Active

**Q.** For `COC(=O)c1nn2c(c1C(=O)OC)CC1c3nc(cc4ccc([nH]4)c(-c4ccccc4)c4nc(cc5ccc([nH]5)c3-c3ccccc3)C=C4)C1C2` (stereo not given), which Activity is on record?
**A.** Active

System: A-375
Experiment: Phototoxicity against human A375 cells assessed as reduction in cell viability up to 500 nM preincubated for 24 hrs followed by exposure to light with fluence rate of 7.5 mW/cm2 at 10 J and measured after 24 hrs in presence of singlet oxygen scavenger sodium azide by MTT assay
Type: functional, cell-based
Details: not given

**Q.** For `OCc1nn2c(c1CO)CC1c3nc(cc4ccc([nH]4)c(-c4ccccc4)c4nc(cc5ccc([nH]5)c3-c3ccccc3)C=C4)C1C2` (stereo not given), which Activity is on record?
**A.** Active

**Q.** For `COC(=O)c1nn2c(c1C(=O)OC)CC1c3nc(cc4ccc([nH]4)c(-c4ccccc4)c4nc(cc5ccc([nH]5)c3-c3ccccc3)C=C4)C1C2` (stereo not given), which Activity is on record?
**A.** Active

System: not listed separately
Experiment: Dark toxicity against human A375 cells at 1 to 10 uM after 24 hrs by MTT assay
Type: cell-based
Details: a-375, 24 h

**Q.** For `COC(=O)c1nn2c(c1C(=O)OC)CC1c3nc(cc4ccc([nH]4)c(-c4ccccc4)c4nc(cc5ccc([nH]5)c3-c3ccccc3)C=C4)C1C2` (stereo not given), which Activity is on record?
**A.** Non-Toxic

System: A-375
Experiment: Induction of apoptosis in human A375 cells at 50 nM preincubated for 24 hrs followed by exposure to light with fluence rate of 7.5 mW/cm2 at 10 J and measured after 24 hrs by Annexin-V/propidium iodide staining-based FACS analysis
Type: functional, cell-based
Details: not given

**Q.** Which Activity does the source give for `OCc1nn2c(c1CO)CC1c3nc(cc4ccc([nH]4)c(-c4ccccc4)c4nc(cc5ccc([nH]5)c3-c3ccccc3)C=C4)C1C2` (stereo not given) here?
**A.** Active

System: A-375
Experiment: Induction of p53 expression in human A375 cells at 50 nM preincubated for 24 hrs followed by exposure to light with fluence rate of 7.5 mW/cm2 at 10 J and measured after 24 hrs by Western blot analysis
Type: functional, cell-based
Details: not given

**Q.** For `OCc1nn2c(c1CO)CC1c3nc(cc4ccc([nH]4)c(-c4ccccc4)c4nc(cc5ccc([nH]5)c3-c3ccccc3)C=C4)C1C2` (stereo not given), which Activity is on record?
**A.** Active

**Q.** For `COC(=O)c1nn2c(c1C(=O)OC)CC1c3nc(cc4ccc([nH]4)c(-c4ccccc4)c4nc(cc5ccc([nH]5)c3-c3ccccc3)C=C4)C1C2` (stereo not given), which Activity is on record?
**A.** Active

System: not listed separately
Experiment: Dark toxicity against human A375 cells at 5 to 10 uM after 24 hrs by MTT assay
Type: cell-based
Details: a-375, 24 h

**Q.** With `OCc1nn2c(c1CO)CC1c3nc(cc4ccc([nH]4)c(-c4ccccc4)c4nc(cc5ccc([nH]5)c3-c3ccccc3)C=C4)C1C2` (stereo not given) as the compound, how does the Activity read?
**A.** Toxic
